In the assay the target is DNA ligase A (Mycobacterium tuberculosis, UniProt P9WNV1). The experiment in a line: Inhibition of Mycobacterium tuberculosis LigA.

Structures are written as SMILES.

Consider `CCN(CC)CCCC(C)Nc1ccnc2c1C=CC(Cl)C2` (configuration not stated), for which the IC50 was determined as 46 µM.

`CC1(C)O[C@H]2OC([C@H](CCO)NCCCN[C@H](CCO)C3O[C@@H]4OC(C)(C)O[C@@H]4[C@H]3OCc3ccccc3)[C@H](OCc3ccccc3)[C@H]2O1` (some centres not stated) registered an IC50 of 46.2 µM.

One may read the IC50 as the concentration that gives 50% inhibition.

These data come from ChEMBL document CHEMBL3046527, “NAD+-dependent DNA ligase (Rv3014c) from M. tuberculosis: Strategies for inhibitor design” (Med Chem Res, 2008).
